GI50 and IC50 data for 27 compounds are collected here from patent US10053458B2, “Pyrimidine-2,4-diamine derivative and anticancer pharmaceutical composition comprising same as effective ingredient” (KOREA RESEARCH INSTITUTE OF CHEMICAL TECHNOLOGY, priority 2014, dated 2018).

One assay relates to H2228. Kind of assay: Cancer cell proliferation inhibition (SRB/MTS), H2228. The settings on record: read-out: H2228 GI50.
For the next assay, the system named is H3122. Put plainly: Cancer cell proliferation inhibition (SRB/MTS), H3122. As to conditions: read-out: H3122 GI50.
The test system of a further assay is BaF3 EML4-ALK WT cells. Kind of assay: Cytotoxicity on BaF3 cell transfected with EML4-ALK WT (WST-1). The settings on record: Ba/F3 EML4-ALK, 72 h, read-out: BaF3 EML4-ALK WT, IC50 of the cytotoxicity. (Tetrazolium assays rely on reduction of a dye to a coloured formazan, in cell work by metabolically active cells.)

Counter-ions that a name gives are not always drawn. Like-named read-outs stand apart in the source and are kept apart here.

Procedure for H2228: (§1) Cancer cell lines used in the experiments were all human-derived cancer cell lines, specifically H2228 and H3122, which are non-small cell lung cancer cell lines.
(§2) The cancer cell proliferation inhibition was measured using the MTS assay as follows. […] Each culture medium was placed in an incubator for 4 hours, taken out and left at room temperature for 10 minutes.
Procedure for H3122: as §1, §2

Broadly, the GI50 is the concentration giving 50% growth inhibition. As a reminder, the IC50 is the point on the concentration scale where inhibition reaches its midpoint. For the compound `COc1cc2c(cc1Nc1ncc(Cl)c(Nc3ccccc3S(=O)(=O)C(C)C)n1)C(C)NCC2` (stereo not drawn) [Example 46], the GI50 with H2228 (Homo sapiens, NCI-H2228, 72 h) is below 50 nM; in the assay with H3122 (Homo sapiens, NCI-H3122, 72 h), below 50 nM. Besides, in the assay with BaF3 EML4-ALK WT cells, the IC50 was below 50 nM.
As to `COc1cc2c(cc1Nc1ncc(Cl)c(Nc3ccccc3S(=O)(=O)C(C)C)n1)C1CNCC(=O)N1CC2` (stereo not drawn) [Example 97], the 50% growth inhibitory concentration (GI50) in the assay on H2228 (Homo sapiens, NCI-H2228, 72 h) was below 50 nM; with H3122 (Homo sapiens, NCI-H3122, 72 h), below 50 nM.
As to `CCOc1cc2c(cc1Nc1ncc(Cl)c(Nc3ccccc3S(=O)(=O)C(C)C)n1)CCNC2(C)C` [Example 99, 5-chloro-N4-(2-(isopropylsulfonyl)phenyl)-N2-(7-ethoxy-1,1-dimethyl-1,2,3,4-tetrahydroisoquinolin-6-yl)pyrimidine-2,4-diamine], the GI50 in the assay on H2228 (Homo sapiens, NCI-H2228, 72 h) is below 50 nM; with H3122 (Homo sapiens, NCI-H3122, 72 h) it was below 50 nM. For the same compound, the IC50 with BaF3 EML4-ALK WT cells is below 50 nM.
As for `CCC1(C)NCCc2cc(Nc3ncc(Cl)c(Nc4ccccc4S(=O)(=O)C(C)C)n3)c(OC)cc21` (stereo not drawn) [Example 73, 5-chloro-N4-(2-(isopropylsulfonyl)phenyl)-N2-(l-ethyl-7-methoxy-1-methyl-1,2,3,4-tetrahydroisoquinolin-6-yl)pyrimidine-2,4-diamine], the GI50 in the assay with H2228 (Homo sapiens, NCI-H2228, 72 h) was below 50 nM; with H3122 (Homo sapiens, NCI-H3122, 72 h), below 50 nM. Besides, the IC50 in the assay with BaF3 EML4-ALK WT cells was below 50 nM.
`COc1cc2c(cc1Nc1ncc(Cl)c(Nc3ccccc3S(=O)(=O)C(C)C)n1)C1CNCC(=O)N1CC2(C)C` (stereo not drawn) [Example 85]: the GI50 in the assay with H2228 (Homo sapiens, NCI-H2228, 72 h) was below 50 nM; with H3122 (Homo sapiens, NCI-H3122, 72 h), below 50 nM. Moreover, in the assay with BaF3 EML4-ALK WT cells, the IC50 is below 50 nM.
In the case of `COc1cc2c(cc1Nc1ncc(Cl)c(Nc3ccccc3S(=O)(=O)C(C)C)n1)C1(CCCC1)CN(C(=O)C(F)(F)F)C2` [Example 13, 1-(6-(5-chloro-4-(2-(isopropylsulfonyl)phenylamino)pyrimidin-2-yl)amino-7-methoxy-1H-spiro[cyclopentane-1,4-isoquinoline]-2(3H)-yl)-2,2,2-trifluoroethane-1-one], the GI50 in the assay with H2228 (Homo sapiens, NCI-H2228, 72 h) was below 50 nM; in the assay on H3122 (Homo sapiens, NCI-H3122, 72 h), below 50 nM. Also, the IC50 in the assay on BaF3 EML4-ALK WT cells was below 50 nM.
Take `CCCC1NCCc2cc(Nc3ncc(Cl)c(Nc4ccccc4S(=O)(=O)C(C)C)n3)c(OC)cc21` (stereo not drawn) [Example 102, 5-chloro-N4-(2-(isopropylsulfonyl)phenyl)-N2-(7-methoxy-1-propyl-1,2,3,4-tetrahydroisoquinolin-6-yl)pyrimidine-2,4-diamine]: the GI50 was below 50 nM with H2228 (Homo sapiens, NCI-H2228, 72 h) and below 50 nM in the assay with H3122 (Homo sapiens, NCI-H3122, 72 h). Also, the IC50 in the assay with BaF3 EML4-ALK WT cells is below 50 nM.
For `CCC1NCCc2cc(Nc3ncc(Cl)c(Nc4ccccc4S(=O)(=O)C(C)C)n3)c(OC)cc21` (stereo not drawn) [Example 27], the GI50 with H2228 (Homo sapiens, NCI-H2228, 72 h) was below 50 nM; in the assay on H3122 (Homo sapiens, NCI-H3122, 72 h), 8.4 nM.
In the case of `COc1cc2c(cc1Nc1ncc(Cl)c(Nc3ccccc3S(=O)(=O)C(C)C)n1)CCNCC2(C)C` [Example 105, 5-chloro-N4-(2-(isopropylsulfonyl)phenyl)-N2-(8-methoxy-1,1-dimethyl-2,3,4,5-tetrahydro-1H-benzo[d]azepin-7-yl)pyrimidine-2,4-diamine], the GI50 was below 50 nM with H2228 (Homo sapiens, NCI-H2228, 72 h) and below 50 nM in the assay on H3122 (Homo sapiens, NCI-H3122, 72 h). The IC50 in the assay on BaF3 EML4-ALK WT cells is below 50 nM.
On to `COc1cc2c(cc1Nc1ncc(Cl)c(Nc3ccccc3S(=O)(=O)C(C)C)n1)CCNC2(C)C` [Example 101, 5-chloro-N4-(2-(isopropylsulfonyl)phenyl)-N2-(7-methoxy-1,1-dimethyl-1,2,3,4-tetrahydroisoquinolin-6-yl)pyrimidine-2,4-diamine hydrochloride], for which the concentration for 50% growth inhibition (GI50) with H2228 (hydrochloride) and in the assay on H3122 (hydrochloride) was below 50 nM each time.
Turning to `COc1cc2c(cc1Nc1ncc(Cl)c(Nc3ccccc3S(=O)(=O)C(C)C)n1)C1(CCCCC1)CN(C(=O)C(F)(F)F)C2` [Example 15, 1-(6-(5-chloro-4-(2-(isopropylsulfonyl)phenylamino)pyrimidin-2-yl)amino-7-methoxy-1H-spiro[cyclohexane-1,4-isoquinoline]-2(3H)-yl)-2,2,2-trifluoroethane-1-one], the GI50 with H2228 (Homo sapiens, NCI-H2228, 72 h) was below 50 nM; in the assay on H3122 (Homo sapiens, NCI-H3122, 72 h), below 50 nM. Moreover, in the assay with BaF3 EML4-ALK WT cells, the IC50 was below 50 nM.
As for `COc1cc2c(cc1Nc1ncc(Cl)c(Nc3ccccc3S(=O)(=O)C(C)C)n1)CCNC2C` (stereo not drawn) [Example 25], the GI50 in the assay with H2228 (Homo sapiens, NCI-H2228, 72 h) is below 50 nM; in the assay on H3122 (Homo sapiens, NCI-H3122, 72 h) it was 8.9 nM.
Regarding `CCN1Cc2cc(Nc3ncc(Cl)c(Nc4ccccc4S(=O)(=O)C(C)C)n3)c(OC)cc2C(C)(C)C1` [Example 92, 5-chloro-N4-(2-(isopropylsulfonyl)phenyl)-N2-(2-ethyl-6-methoxy-4,4-trimethyl-1,2,3,4-tetrahydroisoquinolin-7-yl)pyrimidine-2,4-diamine], the concentration for 50% growth inhibition (GI50) in the assay with H2228 (Homo sapiens, NCI-H2228, 72 h) is below 50 nM; with H3122 (Homo sapiens, NCI-H3122, 72 h), below 50 nM. The IC50 in the assay on BaF3 EML4-ALK WT cells was below 50 nM.
With `COc1cc2c(cc1Nc1ncc(Cl)c(Nc3ccccc3S(=O)(=O)C(C)C)n1)CCN(C(=O)C(F)(F)F)C2(C)C` [Example 32, 1-(6-(5-chloro-4-(2-(isopropylsulfonyl)phenylamino)pyrimidin-2-yl)amino-7-methoxy-1,1-dimethyl-3,4-dihydroisoquinolin-2(1H)-yl)-2,2,2-trifluoroethane-1-one], the GI50 in the assay with H2228 (Homo sapiens, NCI-H2228, 72 h) is below 50 nM; in the assay with H3122 (Homo sapiens, NCI-H3122, 72 h) it was below 50 nM. In the assay on BaF3 EML4-ALK WT cells, the IC50 is below 50 nM.
As to `CCOc1cc2c(cc1Nc1ncc(Cl)c(Nc3ccccc3S(=O)(=O)C(C)C)n1)CN(CC)CC2(C)C` [Example 81, 5-chloro-N4-(2-(isopropylsulfonyl)phenyl)-N2-(6-ethoxy-2-ethyl-4,4-dimethyl-1,2,3,4-tetrahydroisoquinolin-7-yl)pyrimidine-2,4-diamine], the GI50 in the assay with H2228 (Homo sapiens, NCI-H2228, 72 h) was below 50 nM; with H3122 (Homo sapiens, NCI-H3122, 72 h), below 50 nM. Moreover, the IC50 in the assay on BaF3 EML4-ALK WT cells is below 50 nM.
In the case of `COc1cc2c(cc1Nc1ncc(Cl)c(Nc3ccccc3S(=O)(=O)C(C)C)n1)C(C)(C)NCC2` [Example 72, 5-chloro-N4-(2-(isopropylsulfonyl)phenyl)-N2-(6-methoxy-1,1-dimethyl-1,2,3,4-tetrahydroisoquinolin-7-yl)pyrimidine-2,4-diamine], the GI50 is below 50 nM in the assay on H2228 (Homo sapiens, NCI-H2228, 72 h) and below 50 nM in the assay with H3122 (Homo sapiens, NCI-H3122, 72 h). In addition, the IC50 in the assay with BaF3 EML4-ALK WT cells is below 50 nM.
For `CC(C)Oc1cc2c(cc1Nc1ncc(Cl)c(Nc3ccccc3S(=O)(=O)C(C)C)n1)CCN(C(=O)C(F)(F)F)C2` [Example 17, 1-(6-(5-chloro-4-(2-(isopropylsulfonyl)phenylamino)pyrimidin-2-yl)amino-7-isopropoxy-3,4-dihydroisoquinolin-2(1H)-yl)-2,2,2-trifluoroethane-1-one], the GI50 in the assay with H2228 (Homo sapiens, NCI-H2228, 72 h) is below 50 nM; in the assay with H3122 (Homo sapiens, NCI-H3122, 72 h) it was below 50 nM. In the assay on BaF3 EML4-ALK WT cells, the IC50 was below 50 nM.
With `COc1cc2c(cc1Nc1ncc(Cl)c(Nc3ccccc3S(=O)(=O)C(C)C)n1)CCN1C(=O)CNCC21` (stereo not drawn) [Example 84], the GI50 in the assay on H2228 (Homo sapiens, NCI-H2228, 72 h) is below 50 nM; with H3122 (Homo sapiens, NCI-H3122, 72 h), below 50 nM.
`COc1cc2c(cc1Nc1ncc(Cl)c(Nc3ccccc3S(=O)(=O)C(C)C)n1)CCNC2C(F)(F)F` (stereo not drawn) [Example 26]: the GI50 with H2228 (Homo sapiens, NCI-H2228, 72 h) was below 50 nM; in the assay with H3122 (Homo sapiens, NCI-H3122, 72 h), below 50 nM. Besides, in the assay with BaF3 EML4-ALK WT cells, the half-inhibitory concentration (IC50) is below 50 nM.
As for `COc1cc2c(cc1Nc1ncc(Cl)c(Nc3ccccc3S(=O)(=O)C(C)C)n1)CNCC21CC1` [Example 96, 5-chloro-N4-(2-(isopropylsulfonyl)phenyl)-N2-(6-methoxy-2,3-dihydro-1H-spiro(cyclopropane-1,4-isoquinolin)-7-yl)pyrimidine-2,4-diamine], the GI50 is below 50 nM with H2228 (Homo sapiens, NCI-H2228, 72 h) and below 50 nM in the assay with H3122 (Homo sapiens, NCI-H3122, 72 h). Further, the IC50 with BaF3 EML4-ALK WT cells was below 50 nM.
`COc1cc2c(cc1Nc1ncc(Cl)c(Nc3ccccc3S(=O)(=O)C(C)C)n1)CN(C(=O)CO)CC2(C)C` [Example 95]: the concentration for 50% growth inhibition (GI50) in the assay on H2228 (Homo sapiens, NCI-H2228, 72 h) was below 50 nM; with H3122 (Homo sapiens, NCI-H3122, 72 h), below 50 nM. Further, the IC50 in the assay on BaF3 EML4-ALK WT cells is below 50 nM.
As for `COc1cc2c(cc1Nc1ncc(Cl)c(Nc3ccccc3S(=O)(=O)C(C)C)n1)C(C)(C)CNC2` [Example 12, 5-chloro-N4-(2-(isopropylsulfonyl)phenyl)-N2-(7-methoxy-4,4-dimethyl-1,2,3,4-tetrahydroisoquinolin-6-yl)pyrimidine-2,4-diamine], the GI50 with H2228 (Homo sapiens, NCI-H2228, 72 h) was below 50 nM; in the assay with H3122 (Homo sapiens, NCI-H3122, 72 h), below 50 nM. Besides, the IC50 in the assay with BaF3 EML4-ALK WT cells is below 50 nM.
Regarding `CCC1(CC)NCCc2cc(Nc3ncc(Cl)c(Nc4ccccc4S(=O)(=O)C(C)C)n3)c(OC)cc21` [Example 74, 5-chloro-N4-(2-(isopropylsulfonyl)phenyl)-N2-(1,1-diethyl-7-methoxy-1,2,3,4-tetrahydroisoquinolin-6-yl)pyrimidine-2,4-diamine], the GI50 in the assay with H2228 (Homo sapiens, NCI-H2228, 72 h) was below 50 nM; in the assay on H3122 (Homo sapiens, NCI-H3122, 72 h), below 50 nM. In the assay with BaF3 EML4-ALK WT cells, the IC50 was below 50 nM.
Regarding `COc1cc2c(cc1Nc1ncc(Cl)c(Nc3ccccc3S(=O)(=O)C(C)C)n1)C1(CCCC1)CNC2` [Example 14, 5-chloro-N4-(2-(isopropylsulfonyl)phenyl)-N2-(7-methoxy-2,3-dihydro-1H-spiro[cyclopentane-1,4-isoquinoline]-6-yl)pyrimidine-2,4-diamine], the GI50 with H2228 (Homo sapiens, NCI-H2228, 72 h) was below 50 nM; with H3122 (Homo sapiens, NCI-H3122, 72 h), below 50 nM.
`C[C@@H](Oc1cc(-c2cnn(C3CCNCC3)c2)cnc1N)c1c(Cl)ccc(F)c1Cl` [Comparative Example 1, Crizotinib, reference compound]: the GI50 is 85 nM in the assay on H2228 (Homo sapiens, NCI-H2228, 72 h) and 280 nM with H3122 (Homo sapiens, NCI-H3122, 72 h).
The corresponding values for `COc1cc2c(cc1Nc1ncc(Cl)c(Nc3ccccc3S(=O)(=O)C(C)C)n1)CN(C)CC2` [Example 35, 5-chloro-N4-(2-(isopropylsulfonyl)phenyl)-N2-(6-methoxy-2-methyl-1,2,3,4-tetrahydroisoquinolin-7-yl)pyrimidine-2,4-diamine] are below 50 nM and below 50 nM.
With `COc1cc2c(cc1Nc1ncc(Cl)c(Nc3ccccc3S(=O)(=O)C(C)C)n1)CCNC2(C)C` [Example 33, 5-chloro-N4-(2-(isopropylsulfonyl)phenyl)-N2-(7-methoxy-1,1-dimethyl-1,2,3,4-tetrahydroisoquinolin-6-yl)pyrimidine-2,4-diamine], the values for the GI50 in the assay on H2228 and with H3122 were 18 nM and 11 nM, respectively.
